Data from ChEMBL document CHEMBL4396865, “Current advances of triazole alcohols derived from fluconazole: Design, in vitro and in silico studies” (2019).
Converted amounts (≈) assume the structure as drawn. Each block holds one molecule with its values, some of them ahead of it.

Assays:
Format in all cases: functional
[1] = system: Candida parapsilosis; experiment: Antifungal activity against fluconalzole-susceptible Candida parapsilosis after 24 hrs; conditions: Lodderomyces parapsilosis
[2] = system: Candida albicans; experiment: Antifungal activity against fluconalzole-susceptible Candida albicans after 24 hrs
[3] = system: Fonsecaea compacta; experiment: Antifungal activity against Fonsecaea compacta after 24 hrs by microbroth dilution method
[4] = system: Trichophyton rubrum; experiment: Antifungal activity against Trichophyton rubrum after 24 hrs by microbroth dilution method
[5] = system: Cryptococcus neoformans; experiment: Potency index, ratio of fluconazole MIC to test compound MIC for activity against Cryptococcus neoformans ATCC 32609
[6] = system: Trichophyton rubrum; experiment: Potency index, ratio of fluconazole MIC to test compound MIC for Trichophyton rubrum
[7] = system: Candida tropicalis; experiment: Potency index, ratio of fluconazole MIC to test compound MIC for Candida tropicalis
[8] = system: Candida albicans; experiment: Potency index, ratio of fluconazole MIC to test compound MIC for Candida albicans ATCC 76615
[9] = system: Candida tropicalis; experiment: Antifungal activity against Candida tropicalis after 24 hrs by microbroth dilution method
[10] = system: Fonsecaea compacta; experiment: Potency index, ratio of fluconazole MIC to test compound MIC for Fonsecaea compacta
[11] = system: Microsporum canis; experiment: Antifungal activity against Microsporum canis after 24 hrs by microbroth dilution method
[12] = system: Microsporum canis; experiment: Potency index, ratio of fluconazole MIC to test compound MIC for Microsporum canis
[13] = system: Aspergillus fumigatus; experiment: Antifungal activity against Aspergillus fumigatus after 24 hrs by microbroth dilution method
[14] = system: Aspergillus fumigatus; experiment: Potency index, ratio of fluconazole MIC to test compound MIC for Aspergillus fumigatus
[15] = system: Cryptococcus neoformans; experiment: Antifungal activity against Cryptococcus neoformans; conditions: Cryptococcus neoformans
[16] = system: Pichia kudriavzevii; experiment: Antifungal activity against Candida krusei
[17] = system: Candida parapsilosis; experiment: Antifungal activity against Candida parapsilosis; conditions: Lodderomyces parapsilosis
[18] = system: Candida albicans; experiment: Antifungal activity against Candida albicans; conditions: Candida albicans
[19] = system: Candida tropicalis; experiment: Antifungal activity against Candida tropicalis; conditions: Candida tropicalis
[20] = system: Cryptococcus neoformans; experiment: Antifungal activity against Cryptococcus neoformans after 72 hrs by NCCLS protocol based method
[21] = system: Trichophyton rubrum; experiment: Antifungal activity against Trichophyton rubrum after 7 days by NCCLS protocol based method; conditions: 168 h
[22] = system: Candida albicans; experiment: Antifungal activity against Candida albicans after 24 hrs by NCCLS protocol based method
[23] = system: Nannizzia gypsea; experiment: Antifungal activity against Microsporum gypseum after 7 days by NCCLS protocol based method; conditions: 168 h
[24] = system: Candida tropicalis; experiment: Antifungal activity against Candida tropicalis after 24 hrs by NCCLS protocol based method

SMILES: OC(CN(Cc1ccc(F)cc1F)C1CC1)(Cn1cncn1)c1ccc(F)cc1F (stereo not given)
MIC80 [3]: 0.125 µg/mL (≈ 0.297 µM) | MIC80 [4]: 0.125 µg/mL (≈ 0.297 µM) | Ratio [5]: 4 | Ratio [6]: 4 | Ratio [7]: 4 | Ratio [8]: 4 | MIC80 [9]: 0.125 µg/mL (≈ 0.297 µM) | Ratio [10]: 4 | MIC80 [11]: 0.125 µg/mL (≈ 0.297 µM) | Ratio [12]: 4 | MIC80 [13]: 0.125 µg/mL (≈ 0.297 µM) | Ratio [14]: 4

SMILES: Cc1ccc(NC(=O)CN(C)CC(O)(Cn2cncn2)c2ccc(F)cc2F)cc1C (stereo not given)
MIC80 [15]: 0.0156 µg/mL (≈ 0.0363 µM) | MIC80 [16]: 0.25 to 1 µg/mL (≈ 0.582 to 2.33 µM) | MIC80 [17]: 0.25 to 1 µg/mL (≈ 0.582 to 2.33 µM) | MIC80 [18]: 0.0156 µg/mL (≈ 0.0363 µM) | MIC80 [19]: 0.25 to 1 µg/mL (≈ 0.582 to 2.33 µM)

SMILES: CN(CC(=O)Nc1ccc(F)cc1)CC(O)(Cn1cncn1)c1ccc(F)cc1F (stereo not given)
MIC80 [15]: 0.0156 µg/mL (≈ 0.0372 µM) | MIC80 [16]: 0.25 to 1 µg/mL (≈ 0.596 to 2.38 µM) | MIC80 [17]: 0.25 to 1 µg/mL (≈ 0.596 to 2.38 µM) | MIC80 [18]: 0.0156 µg/mL (≈ 0.0372 µM) | MIC80 [19]: 0.25 to 1 µg/mL (≈ 0.596 to 2.38 µM)

SMILES: CN(CCCOc1ccc(F)cc1)CC(O)(Cn1cncn1)c1ccc(F)cc1F (stereo not given)
MIC [20]: 0.001 to 0.016 µg/mL (≈ 0.00238 to 0.0381 µM) | MIC [21]: 0.001 to 0.016 µg/mL (≈ 0.00238 to 0.0381 µM) | MIC [22]: 0.001 to 0.016 µg/mL (≈ 0.00238 to 0.0381 µM) | MIC [23]: 0.001 to 0.016 µg/mL (≈ 0.00238 to 0.0381 µM) | MIC [24]: 0.001 to 0.016 µg/mL (≈ 0.00238 to 0.0381 µM)

SMILES: CN(CC(=O)Nc1ccc(C(C)(C)C)cc1)CC(O)(Cn1cncn1)c1ccc(F)cc1F (stereo not given)
MIC80 [15]: 0.0156 µg/mL (≈ 0.0341 µM) | MIC80 [16]: 0.25 to 1 µg/mL (≈ 0.546 to 2.19 µM) | MIC80 [17]: 0.25 to 1 µg/mL (≈ 0.546 to 2.19 µM) | MIC80 [18]: 0.0156 µg/mL (≈ 0.0341 µM) | MIC80 [19]: 0.25 to 1 µg/mL (≈ 0.546 to 2.19 µM)

SMILES: Cc1cc(C)cc(NC(=O)CN(C)CC(O)(Cn2cncn2)c2ccc(F)cc2F)c1 (stereo not given)
MIC80 [15]: 0.0156 µg/mL (≈ 0.0363 µM) | MIC80 [16]: 0.25 to 1 µg/mL (≈ 0.582 to 2.33 µM) | MIC80 [17]: 0.25 to 1 µg/mL (≈ 0.582 to 2.33 µM) | MIC80 [18]: 0.0156 µg/mL (≈ 0.0363 µM) | MIC80 [19]: 0.25 to 1 µg/mL (≈ 0.582 to 2.33 µM)

SMILES: CN(CCCOc1ccc(Cl)cc1)CC(O)(Cn1cncn1)c1ccc(F)cc1F (stereo not given)
MIC [20]: 0.001 µg/mL (≈ 0.00229 µM) | MIC [21]: 0.001 µg/mL (≈ 0.00229 µM) | MIC [22]: 0.001 µg/mL (≈ 0.00229 µM) | MIC [23]: 0.001 µg/mL (≈ 0.00229 µM) | MIC [24]: 0.001 µg/mL (≈ 0.00229 µM)

SMILES: Cc1ccc(NC(=O)CN(C)CC(O)(Cn2cncn2)c2ccc(F)cc2F)cc1 (stereo not given)
MIC80 [15]: 0.0156 µg/mL (≈ 0.0376 µM) | MIC80 [16]: 0.25 to 1 µg/mL (≈ 0.602 to 2.41 µM) | MIC80 [17]: 0.25 to 1 µg/mL (≈ 0.602 to 2.41 µM) | MIC80 [18]: 0.0156 µg/mL (≈ 0.0376 µM) | MIC80 [19]: 0.25 to 1 µg/mL (≈ 0.602 to 2.41 µM)

The next lines start with results.

MIC [1]: 0.063 to 1 µg/mL (≈ 0.141 to 2.24 µM) | MIC [2]: 0.063 to 1 µg/mL (≈ 0.141 to 2.24 µM)
SMILES: OC(Cn1cncn1)(Cn1cnc(SCc2ccccc2F)n1)c1ccc(F)cc1F (stereo not given)

MIC [1]: 0.063 to 1 µg/mL (≈ 0.127 to 2.01 µM) | MIC [2]: 0.063 to 1 µg/mL (≈ 0.127 to 2.01 µM)
SMILES: OC(Cn1cncn1)(Cn1cnc(SCc2ccc(Cl)cc2Cl)n1)c1ccc(F)cc1F (stereo not given)

MIC80 [3]: 0.125 µg/mL (≈ 0.311 µM) | MIC80 [4]: 0.125 µg/mL (≈ 0.311 µM) | MIC80 [9]: 0.125 µg/mL (≈ 0.311 µM) | MIC80 [11]: 0.125 µg/mL (≈ 0.311 µM) | MIC80 [13]: 0.125 µg/mL (≈ 0.311 µM)
SMILES: OC(CN(Cc1ccccc1F)C1CC1)(Cn1cncn1)c1ccc(F)cc1F (stereo not given)
Ratio [5]: 4 | Ratio [6]: 4 | Ratio [7]: 4 | Ratio [8]: 4 | Ratio [10]: 4 | Ratio [12]: 4 | Ratio [14]: 4

MIC80 [3]: 0.125 µg/mL (≈ 0.27 µM) | MIC80 [4]: 0.125 µg/mL (≈ 0.27 µM) | MIC80 [9]: 0.125 µg/mL (≈ 0.27 µM) | MIC80 [11]: 0.125 µg/mL (≈ 0.27 µM) | MIC80 [13]: 0.125 µg/mL (≈ 0.27 µM)
SMILES: OC(CN(Cc1ccccc1Br)C1CC1)(Cn1cncn1)c1ccc(F)cc1F (stereo not given)
Ratio [5]: 4 | Ratio [6]: 4 | Ratio [7]: 4 | Ratio [8]: 4 | Ratio [10]: 4 | Ratio [12]: 4 | Ratio [14]: 4

MIC80 [15]: 0.0156 µg/mL (≈ 0.0389 µM) | MIC80 [16]: 0.25 to 1 µg/mL (≈ 0.623 to 2.49 µM) | MIC80 [17]: 0.25 to 1 µg/mL (≈ 0.623 to 2.49 µM) | MIC80 [18]: 0.0156 µg/mL (≈ 0.0389 µM) | MIC80 [19]: 0.25 to 1 µg/mL (≈ 0.623 to 2.49 µM)
SMILES: CN(CC(=O)Nc1ccccc1)CC(O)(Cn1cncn1)c1ccc(F)cc1F (stereo not given)

MIC80 [3]: 0.125 µg/mL (≈ 0.314 µM) | MIC80 [4]: 0.125 µg/mL (≈ 0.314 µM) | MIC80 [9]: 0.125 µg/mL (≈ 0.314 µM) | MIC80 [11]: 0.125 µg/mL (≈ 0.314 µM) | MIC80 [13]: 0.125 µg/mL (≈ 0.314 µM)
SMILES: Cc1ccccc1CN(CC(O)(Cn1cncn1)c1ccc(F)cc1F)C1CC1 (stereo not given)
Ratio [5]: 4 | Ratio [6]: 4 | Ratio [7]: 4 | Ratio [8]: 4 | Ratio [10]: 4 | Ratio [12]: 4 | Ratio [14]: 4

MIC [1]: 0.063 to 1 µg/mL (≈ 0.133 to 2.11 µM) | MIC [2]: 0.063 to 1 µg/mL (≈ 0.133 to 2.11 µM)
SMILES: O=[N+]([O-])c1ccc(CSc2ncn(CC(O)(Cn3cncn3)c3ccc(F)cc3F)n2)cc1 (stereo not given)

MIC [20]: 0.001 to 0.016 µg/mL (≈ 0.00229 to 0.0366 µM) | MIC [21]: 0.001 to 0.016 µg/mL (≈ 0.00229 to 0.0366 µM) | MIC [22]: 0.001 to 0.016 µg/mL (≈ 0.00229 to 0.0366 µM) | MIC [23]: 0.001 to 0.016 µg/mL (≈ 0.00229 to 0.0366 µM) | MIC [24]: 0.001 to 0.016 µg/mL (≈ 0.00229 to 0.0366 µM)
SMILES: CN(CCCOc1ccccc1Cl)CC(O)(Cn1cncn1)c1ccc(F)cc1F (stereo not given)

MIC [1]: 0.063 to 1 µg/mL (≈ 0.127 to 2.01 µM) | MIC [2]: 0.063 to 1 µg/mL (≈ 0.127 to 2.01 µM)
SMILES: OC(Cn1cncn1)(Cn1cnc(SCc2ccc(Cl)c(Cl)c2)n1)c1ccc(F)cc1F (stereo not given)

MIC [1]: 0.063 to 1 µg/mL (≈ 0.136 to 2.16 µM) | MIC [2]: 0.063 to 1 µg/mL (≈ 0.136 to 2.16 µM)
SMILES: OC(Cn1cncn1)(Cn1cnc(SCc2ccc(Cl)cc2)n1)c1ccc(F)cc1F (stereo not given)

MIC80 [3]: 0.125 µg/mL (≈ 0.325 µM) | MIC80 [4]: 0.125 µg/mL (≈ 0.325 µM) | MIC80 [9]: 0.125 µg/mL (≈ 0.325 µM) | MIC80 [11]: 0.125 µg/mL (≈ 0.325 µM) | MIC80 [13]: 0.125 µg/mL (≈ 0.325 µM)
SMILES: OC(CN(Cc1ccccc1)C1CC1)(Cn1cncn1)c1ccc(F)cc1F (stereo not given)
Ratio [5]: 4 | Ratio [6]: 4 | Ratio [7]: 4 | Ratio [8]: 4 | Ratio [10]: 4 | Ratio [12]: 4 | Ratio [14]: 4
